Measurements: patent publication US6605730B2, “Intermediates for nematicidal pyrazoles” (priority 1998, dated 2003)
Each block holds one compound with its values, some of them ahead of it.

Tests used:
[1] = test system: southern root-knot nematodes; assay: Test on root-knot nematodes (soil pot test, tomato); type: in vivo; details: active ingredient 50 ppm in infested soil; tomato plants; after 4 weeks
Description: Fine granular formulations were prepared by impregnating 99 parts of pumice with 1 part each of active compounds.
Each of the active compounds prepared in the above-described manner was added to soil infested with southern root-knot nematodes so as to give an active ingredient concentration of 50 ppm, and intimately blended therein. This soil was charged into pots having an area of 1/5000 are, and about 20 tomato seeds (of the Kurihara variety) were sown in each pot. Tomato plants were grown in a greenhouse and, after 4 weeks, extracted so as not to injure their roots. Then, the root knot index and the controlling effect for each active compound were determined in the following manner.
0: No knot was formed (perfectly controlled).
1: Knots were formed to a slight degree.
2: Knots were formed to a moderate degree.
3: Knots were formed to a heavy degree.
4: Knots were formed to the heaviest degree (corresponding to no treatment). [formula]
According to the value of the controlling effect, the effectiveness was rated on the following basis.
a: The controlling effect was in the range of 100 to 71%.
b: The controlling effect was in the range of 70 to 50%.
c: The controlling effect was less than 50%.
d: The controlling effect was 0%.

[2] = test system: Trichinella spiralis larvae; assay: Test on Trichinella spiralis, Owen, larvae; type: in vivo; details: 100 μg/ml; incubated at 19° C. for five days
Description: The method was carried out, in accordance with a method described in Tropenmed. Parasitol., vol. 32 (1981), 31-34, Jenkins, D. C., and Carrington, T. S. T. spiralis larvae were isolated from skeletal muscles and diaphragms of SPF/CFW1 mice and stored in sodium chloride solution ([…]) supplemented with Canested (20 μg/ml). The larvae (20 per estimation) were incubated in 2 ml of a solution with the following composition: Casitone 20; yeast extract 10; glucose 5; potassium dihydrogen phosphate 0.8; dipotassium hydrogen phosphate 0.8 g/l in water (500 ml; pH 7.2) and supplemented with Sisomycin (10 mg/l) and Canesten (1 mg/l).
The test compound (10 mg) was dissolved in dimethylsulfoxide (0.5 ml) and added to the incubation medium containing the larvae to give final concentrations of 100 μg/ml. The mixture was incubated at 19° C. for five days, after which activity was assessed according to Jenkins and Carrington a scale 1-3 where 1=weak activity (fewer live larvae than in the untreated control); 2=good activity (>=50% more dead larvae than in the untreated control) and 3=full activity (all larvae dead).

[3] = test system: Nippostrongylus brasiliensis adult worms; assay: Test on Nippostrongylus brasiliensis, Lane, adult (acetylcholine esterase activity of incubation medium); type: in vivo; details: 100 μg/ml
Description: The method was carried out, in accordance with a method described in Parasitol. Res., vol. 73 (1987) 191, Rapson, E. B. et al. N.brasiliensis adult worms are isolated from the small intestine of female Wister rats and in sodium chloride solution ([…]) supplemented with Canesten (2 mg/l) and Sisomycin (20 mg/l). Worms (five male and five female) were incubated, according to the method of Rapson et al, and the incubation medium was adjusted so as to give final concentrations of 100 μg/ml. The resulting incubation medium was for acetylcholine esterase activity, as performed by Rapso et al. using a scale 0-3 where 0=no activity (<50% enzyme inhibition) and 1, 2 and 3 weak, good and full activity (50-75, >75 and 100% enzyme inhibition, respectively).

[4] = test system: Meloidogyne incognita; assay: Meloidogyne test (Test Example 6, infected soil, lettuce); type: in vivo; details: active compound concentration 20 ppm, lettuce root galls
Description: (§1) Test nematode: Meloidogyne incognita
Solvent: 31 parts by weight of acetone
(§2) Emulsifier: 1 part by weight of alkylaryl polyglycol ether
(§3) To produce a suitable preparation of active compound, 1 part by weight of active compound is mixed with the stated amount of solvent and the stated amount of emulsifier is added and the concentrate is diluted with water to the desired concentration.
(§4) The active compound preparation is intimately mixed with soil which is heavily infected with the test nematodes. The treated soil is transferred into pots, lettuce seeds are sown and the pots are kept in the greenhouse.
(§5) After the desired time the lettuce roots are checked for infestation with nematodes (root galls) and the efficacy of the active compound in % is determined. The efficacy is 100% when infestation is avoided completely and 0% when infestation level is just as high as in the control plants in untreated but equally infested soil.

[5] = test system: Meloidogyne incognita; assay: Meloidogyne test (Test Example 5, infected soil, lettuce); type: in vivo; details: active compound concentration 5 ppm; lettuce root galls
Description: as §1
Solvent: 4 parts by weight of acetone
as §2, §3, §4, §5

Compound: Clc1ccc(-c2cc(-c3cccs3)[nH]n2)cc1 [Compound 7, 3-(4-chlorophenyl)-5-(2-thienyl)-1H-pyrazole]
- melting point: 217 °C
- Evaluation (controlling effect from root knot index) [1]: a (The controlling effect was in the range of 100 to 71%.)

Compound: CCc1ccc(-c2cc(-c3cccs3)[nH]n2)cc1 [Compound 11]
- Evaluation (controlling effect from root knot index) [1]: a (The controlling effect was in the range of 100 to 71%.)

Compound: CCc1c(-c2ccc(Cl)cc2)n[nH]c1-c1cccs1 [Compound 46]
- Evolution (activity, scale 1-3) [2]: 2 (2=good activity (>=50% more dead larvae than in the untreated control))
- Evalution (acetylcholine esterase inhibition, scale 0-3) [3]: 3 (1, 2 and 3 weak, good and full activity (50-75, >75 and 100% enzyme inhibition, respectively))

Compound: Fc1ccc(-c2cc(-c3cccs3)[nH]n2)cc1 [Compound 6, 3-(4-fluorophenyl)-5-(2-thienyl)-1H-pyrazole]
- Evaluation (controlling effect from root knot index) [1]: a (The controlling effect was in the range of 100 to 71%.)
- Evolution (activity, scale 1-3) [2]: 2 (2=good activity (>=50% more dead larvae than in the untreated control))
- Evalution (acetylcholine esterase inhibition, scale 0-3) [3]: 3 (1, 2 and 3 weak, good and full activity (50-75, >75 and 100% enzyme inhibition, respectively))

Compound: 1-acetyl-3-(4-chlorophenyl)-5-(2-thienyl)-1H-pyrazole and 1-acetyl-3-(2-thienyl)-5-(4-chlorophenyl)-1H-pyrazole [Compound 58]
- Evaluation (controlling effect from root knot index) [1]: a (The controlling effect was in the range of 100 to 71%.)

Compound: Fc1cccc(F)c1-c1cc(-c2cccs2)[nH]n1
- kill in % after 14 d [4]: 100%

- melting point: 129 to 132 °C
Compound: CCCc1c(-c2ccc(Cl)cc2)n[nH]c1-c1cccs1

Compound: c1ccc(-c2cc(-c3cccs3)n[nH]2)cc1 [compound 1, 3-(2-Thienyl)-5-phenyl-1H-pyrazole, reference compound]
- Evaluation (controlling effect from root knot index) [1]: c (The controlling effect was less than 50%.)

Compound: CSCc1c(-c2ccc(Cl)cc2)n[nH]c1-c1cccs1 [Compound 49, 3-(4-Chlorophenyl)-4-methylmercaptomethyl-5-(2-thienyl)-1H-pyrazole]
- Evolution (activity, scale 1-3) [2]: 2 (2=good activity (>=50% more dead larvae than in the untreated control))
- Evalution (acetylcholine esterase inhibition, scale 0-3) [3]: 3 (1, 2 and 3 weak, good and full activity (50-75, >75 and 100% enzyme inhibition, respectively))

Compound: C=C(C)C(=O)n1nc(-c2ccc(Cl)cc2)cc1-c1cccs1
- kill (%) [5]: 100%

- melting point: 61 to 65 °C
Compound: CC(C)(C)c1ccc(-c2cc(-c3cccs3)[nH]n2)cc1

Compound: FC(F)(F)Oc1ccc(-c2cc(-c3cccs3)[nH]n2)cc1 [Compound 26]
- Evaluation (controlling effect from root knot index) [1]: a (The controlling effect was in the range of 100 to 71%.)

Compound: Ic1ccc(-c2cc(-c3cccs3)[nH]n2)cc1 [Compound 9]
- Evaluation (controlling effect from root knot index) [1]: a (The controlling effect was in the range of 100 to 71%.)
- Evalution (acetylcholine esterase inhibition, scale 0-3) [3]: 3 (1, 2 and 3 weak, good and full activity (50-75, >75 and 100% enzyme inhibition, respectively))

Compound: COc1ccc(-c2cc(-c3cccs3)n[nH]2)cc1 [compound 2, 3-(2-Thienyl)-5-(4-methoxyphenyl)-1H-pyrazole, reference compound]
- Evaluation (controlling effect from root knot index) [1]: d (The controlling effect was 0%.)
